According to ChEMBL document CHEMBL3600296, “Synthesis and evaluation of pyrrolotriazine based molecules as PI3 kinase inhibitors” (Bioorg Med Chem Lett, 2015):

Legend:
Settings in all cases: 2 h
[1] = system: Liver microsome; assay: Metabolic stability in dog liver microsomes at 10 uM up to 120 mins by HPLC analysis; assay type: ADME, Canis lupus familiaris
[2] = system: Liver microsome; assay: Metabolic stability in human liver microsomes at 10 uM up to 120 mins by HPLC analysis; assay type: ADME
[3] = Metabolic stability in mouse liver microsomes at 10 uM up to 120 mins by HPLC analysis; assay type: ADME

| Stability [1] | Stability [2] | Stability [3] | Structure (SMILES) |
| --- | --- | --- | --- |
| Stable | Stable | Stable | Nc1ncc(-c2nc(N3CCOCC3)c3cccn3n2)cn1 |
| Stable | Stable | Stable | c1cc(-c2nc(N3CCOCC3)c3cccn3n2)c2cn[nH]c2c1 |
| Stable | Stable | Stable | COCc1ccc2c(N3CCOCC3)nc(-c3cnc(N)nc3)nn12 |
